pIC50: −log10 of the molar value.
Assays:
[1] = system: endogenous nonmutant ATXN2 protein; experiment: Western blotting of endogenous ATXN2 protein in HEK-293 cells; type: cell-based, human
Source text: (§2) To characterize a bioavailable HSP90 inhibitor, we proceeded by using 17-dimethylaminoethylamino-17-demethoxygeldanamycin (17-DMAG, also known as alvespimycin) for inhibition of ATXN2 in cultured cells instead of the original compounds identified in the screen.
Experiments were repeated three times; values are means and SD.

mutant ATXN2-Q58 protein = experiment: Western blotting in HEK-293 ATXN2-Q58 KI cells; type: cell-based, human; conditions: 24 h
Experimental: as §2
Figure 4 Reduction of ATXN2 expression by 17-DMAG restores autophagy and ER stress phenotypes in ATXN2 mutant cells.A, ATXN2-Q58 HEK-293 cells were treated with 17-DMAG at the indicated doses for 24 h, and then proteins were evaluated by Western blotting. Untreated HEK-293 cells with normal A P-eIF2α TXN2 were also included. […] B, quantification of the blots in A. The n number of blots ranged from 3 to 9. Values are means and SD. Probabilities are from one-way ANOVA and post hoc Bonferroni-corrected t tests: ns; ∗p < 0.05; ∗∗p < 0.01, and ∗∗∗p < 0.001.

ATXN2 protein = experiment: Cerebellar ATXN2 protein by Western blotting in BAC ATXN2-Q22 mice; type: in vivo, mouse
Source text: Figure 5 Effect of HSP90 inhibitors on ATXN2 cerebellar expression in vivo in BAC ATXN2-Q22 mice. Inhibition of ATXN2 expression by 17-DMAG (A) and HSP990 (B) versus vehicle controls. Mouse ID numbers are shown above the lanes. Western blot analysis showing upregulation of HSP70 expression following 17-DMAG treatment, which indicates successful HSP90 target engagement. The human transgenic ATXN2 protein is indicated as ATXN2-Q22 and the endogenous mouse protein as mATXN2. Values shown are mean and SD. Probabilities are from Student’s t tests: ∗p < 0.05; ∗∗∗p < 0.001. Three blots were quantified. ATXN2, ataxin-2; BAC, bacterial artificial chromosome; 17-DMAG, 17-dimethylaminoethylamino-17-demethoxygeldanamycin; HSP, heat shock protein.
(§1) Control-treated mice included vehicle alone.
Proteins were prepared, separated on precast polyacrylamide gels (Bio-Rad), transferred to Hybond (Amersham), and detected by enhanced chemiluminescence (Amersham) as previously described ([12], [27]). […]

ATXN2-luc [2] = experiment: ATXN2-luc mRNA by quantitative PCR in H2 cells; type: cell-based, human; conditions: 1 and 10 μM, 48 h
Experimental: treated with the indicated doses of DMAG for 48 hours, then ATXN2-luc mRNA abundance was
determined by quantitative PCR using primers that amplify the luciferase gene.

HSP90 = HSP90 target engagement: HSP70 abundance by Western blotting in HEK-293 cells; type: cell-based, human
endogenous ATXN2 = experiment: Endogenous ATXN2 mRNA by qPCR in HEK-293 cells; type: cell-based; conditions: Homo sapiens, HEK293; HEK-293 cells; read-out: IC50, endogenous ATXN2 transcription by qPCR
ATXN2-luc [3] = experiment: ATXN2-luc luciferase dose-response in H2 cells, 48 h; type: cell-based; conditions: Homo sapiens, H2 cells, read-out: IC50 for lowering ATXN2-luc
BAC ATXN2-Q22 mice = experiment: Survival / tolerability of treated BAC ATXN2-Q22 mice; type: in vivo, mouse
Source text: Our study identified 11 compounds known to inhibit HSP90, including one that was identified in our original pilot screen. […] 17-DMAG inhibited transcription of ATXN2 in HEK-293 cells in a dose-dependent manner and reduced the abundance of endogenous and mutant ATXN2 proteins in HEK-293 cells (Figs. 3 and 4). […] Toxicity was evident in our in vivo experiment as well. […] However, like for 17-DMAG, BAC ATXN2-Q22 mice treated with HSP990 had 80% reduced ATXN2 protein abundance in the cerebellum (Fig. 5B).
as §1

[4] = set-up: method as in PMID 24471734, PMID 15791458; conditions: ref [39], [40]; cited from earlier work
ATXN2 mRNA = experiment: Cerebellar ATXN2 mRNA by qPCR in BAC ATXN2-Q22 mice; conditions: 4 mg/kg intraperitoneal, every other day over 10 days
[5] = set-up: method as in PMID 25625276; conditions: ref [41]; cited from earlier work
[6] = 100 mg/kg intraperitoneal, every other day over 16 days

| SMILES | Abundance of endogenous nonmutant ATXN2 protein [1] | Mutant ATXN2 protein abundance (mutant ATXN2-Q58 protein) | Reduction of ATXN2 protein in the cerebellum (ATXN2 protein; [6]) [%] | ATXN2-luc transcription (mRNA by qPCR) (ATXN2-luc [2]) | ATXN2-luc transcription (mRNA by qPCR) (ATXN2-luc [2]; listed as DMAG) | HSP70 abundance (HSP90) | pIC50 (endogenous ATXN2) | pIC50 (ATXN2-luc [3]) | Tolerability in mice (BAC ATXN2-Q22 mice; [6]) | Oral bioavailability and blood–brain barrier crossing [4] | Reduced ATXN2 mRNA abundance in cerebella (ATXN2 mRNA) [%] | ATXN2 mRNA abundance in cerebella (ATXN2 mRNA; […]) [%] | Reduced ATXN2 protein abundance in the cerebellum (ATXN2 protein; 4 mg/kg intraperitoneal, every other day over 10 days) [%] | Survival of treated mice (BAC ATXN2-Q22 mice; 4 mg/kg intraperitoneal, every other day over 10 days, n = 4) | Toxicity in clinical trial [5] |
| --- | --- | --- | --- | --- | --- | --- | --- | --- | --- | --- | --- | --- | --- | --- | --- |
| CO[C@H]1/C=C\C=C(/C)C(=O)NC2=CC(=O)C(NCCN(C)C)=C(C[C@@H](C)C[C@H](OC)[C@H](O)[C@@H](C)/C=C(\C)[C@@H]1OC(N)=O)C2=O [17-DMAG, 17-dimethylaminoethylamino-17-demethoxygeldanamycin] | reduced the abundance of endogenous nonmutant ATXN2 protein | significantly reduced mutant ATXN2 protein | 90 | reduction of ATXN2-luc transcription | reduces transcription of ATXN2-luc | significantly increased HSP70 abundance | 6.12 | 7.03 | well tolerated | orally bioavailable and able to cross the blood–brain barrier |  |  |  |  |  |
| COc1cccc(-c2cc(F)ccc2[C@H]2Cc3nc(N)nc(C)c3C(=O)N2)n1 [HSP990] |  |  |  |  |  |  |  |  |  |  | 20 | 78.54 ± 3.9 | 80 | half of the mice we treated with HSP990 did not survive treatment | dose-limiting neurotoxicity |

— PMC9356275, “A quantitative high-throughput screen identifies compounds that lower expression of the SCA2-and ALS-associated gene ATXN2” (The Journal of Biological Chemistry, 2022)
